Data reported in patent publication US20260137807A1, “COMPOSITIONS AND METHODS FOR DELIVERING A MACROMOLECULE TO A CELL” (AstraZeneca AB, priority 2022, published 2026).

Columns and labels:
[1] = system: HeLa_Luc705 cells; experiment: Splice switching activity assay, 24 hr SMC treatment, Examples 4B/4D; format: cell-based
Protocol: (§1) HeLa_Luc705 cells were seeded in 96-well plates at 10,000 cells per well in growth media with 2 μM Luc705-SSO or 1 μM Luc705-SSO. The various SMCs were diluted directly into prepared growth media. After 24 hr to allow adherence and SSO internalization, 10 μl of diluted SMC was added into each well at indicated concentrations. For a positive control, SSOs were complexed with Lipofectamine 2000 for 30 min at RT and cells treated with a final concentration of 200 nM. ON concentrations above 200 nM would require LF2000 to be used in excess of the cells' toxicity threshold. After 24 hr treatment, cells were lysed with 0.1% TritonX-100 (Sigma Aldrich, cat no. X100) in 1× PBS (Gibco, cat no. 10010023).
For the detection of luciferase activity, 30 μL of cell lysate was transferred to white-walled plates. The luciferase intensity in each well was immediately measured via luminometer following auto-injection of 25 μL Luciferin substrate as per the Promega Firefly Luciferase Assay System. The timing parameters of photon measurements were optimized for this procedure.
as §1, with “The” for “HeLa_Luc705 cells were seeded in 96-well plates at 10,000 cells per well in growth media with 2 μM Luc705-SSO or 1 μM Luc705-SSO. The”

[2] = system: HeLa mCherry-Gal9 cells; experiment: mCherry-GAL9 recruitment assay; format: cell-based
Source text: (§2) All compounds were subjected to a mCherry-GAL9 recruitment assay. Under normal conditions, mCherry-GAL9 is homogenously dispersed in the cytosol. When an endosomal leakage event is detected, mCherry-GAL9 translocates to the damaged endosome (Du Rietz et al. (2020) Nat. Commun. 11:1809) The resulting localization pattern of discrete puncta can be visualized and quantitated.
(§3) HeLa and Huh7 cell lines stably expressing mCherry-GAL9 were generated as described by (bioRxiv) (Munson, M. et al. (2021) Communications Biology, 4(211): 1-14) and seeded into 384-well CellCarrier Ultra plates (PerkinElmer: 6007558) at 3000 or 3500 cells/well respectively, 16 h before experimental usage.
(§4) Dose-response curves of select compounds were generated using an Echo 655T acoustic dispenser (Labcyte) to dispense the indicated compounds into source plates (Greiner: 781280) containing growth media. At experimental start points, media containing appropriate compounds and doses was transferred to plates using a liquid handling robot (Agilent Bravo).
(§5) At assay endpoints, cells were washed 2× PBS at RT and fixed in 4% PFA (VWR: 9713.1000) for 15 mins/RT. Cells were washed a further 3× PBS before the addition of PBS+1 μg/ml Hoechst 33342 (ThermoFisher Scientific: H21492) for a minimum of 1 h before imaging.
(§6) Plates were imaged using a spinning-disk confocal microscope (Yokogawa: CV7000) with a 20× objective (NA 0.75). Images were processed utilizing Columbus image-analysis software (PerkinElmer: v2.9.0) to identify and quantify cells and mCherry-GAL9 structures. The resulting data were processed and normalized in Spotfire (Tibco: v10.3) and plotted in Prism (Graphpad: v8.0.1). Image panels were assembled using the FigureJ plugin for FIJI. (Mutterer and Zinck (2013) J. Microsc. 252(1):89-91).
(§7) Cells were subjected to a 10-point concentration dilution (0-15 μM) for 2 hours and then fixed and imaged (FIG. 3 and FIG. 4). Images were analyzed and curves were generated from both mCherry-GAL9 puncta quantitation and cell survival as determined by nuclear morphology (FIG. 5). The GAL9 recruitment response support the functional splice-switching data with SSOs, confirming the mCherry-GAL9 assay as a powerful tool for screening endosomolytic compounds and supporting the hypothesis that AZ2467 (Compound 6) and AZ4800 (Compound 2) promote SSO activity by inducing endosomal rupture. The GAL9 assay was again conducted, this time in live cells for 4 hours with select compounds for screening. Compounds were screened at 5 μM (FIG. 6-8) or 0.3125-10 μM (FIG. 35-38). FIG. 39 and FIG. 47 provide results for select compounds at various doses 0.3125-10 μM.

[3] = system: Huh7 mCherry-Gal9 cells; experiment: mCherry-GAL9 recruitment assay; format: cell-based
Source text: as §2, §3, §4, §5, §6, §7

[4] = system: Floxed mice; experiment: Co-delivery of Cre recombinase, in vivo editing tdTomato reporter, ICV
Protocol: Cre recombinase ([…] […] […] […] […] […] […] (SEQ ID NO: 10)) was co-administered with Compound 4 to assess improvement in editing efficiency in an in vivo reporter system, in which edited mice express tdTomato. Floxed mice were administered via intracerebroventricular injection (ICV) with 60 pmol Cre recombinase and varying concentrations (2.5, 5.0, 7.5, 10.0, 12.5, and 15 μM) of Compound 4 as calculated in 40 μL CSF volume. Brain segments were analyzed by immunofluorescent staining 7 days post-treatment.

`COc1nn(C2CCNCC2)cc1Nc1ncc(F)c(-n2ccc3c(C#N)cccc32)n1` [Compound 4] was tested, and the “increase in SSO activity” value ([1]; 2 μM Luc 705 SSO, FIG. 24) was “increase in SSO activity”, the “increase in SSO activity” value ([1]; 2 μM Luc 705 SSO, FIG. 26) was “induced an increase in SSO activity” and the “increase in SSO activity” value ([1]; 2 μM SSO, FIG. 23A) was “increase in SSO activity”. For the same compound, the “activity of the oligo as compared to oligo only” value ([1]; 2.5 μM compound, 1 μM SSO, FIG. 27) was “enhanced activity of the oligo as compared to oligo only”, the “increase in SSO activity over 1 μM naked SSO” value ([1]; higher concentrations of AZ3327, FIG. 23B) was “increase in SSO activity” and the “GAL9 response, rank among exemplified compounds” value ([2]; doses 1.25-5 μM, 1, 2, 16 hours, FIG. 34) was “most potent response”. For the same compound, the “GAL9 response, rank” value ([3]; 0.25 to 4 hours, 0.31 to 10 μM, FIG. 40) was “most potent”, the dose from which GAL9+ responses are seen ([3]; after 15 mins, FIG. 40) was ≥ 1.25 µM and the “GAL9 response, rank among exemplified compounds” value ([3]; doses 1.25-5 μM, 1, 2, 16 hours, FIG. 33) was “most potent response”. For the same compound, the “in vivo editing in the brain (tdTomato staining)” value ([4]; ICV, 60 pmol Cre, 2.5-15 μM compound, 7 days post-treatment) was “enhanced by Compound 4 in a dose-dependent manner”, the “staining in the lumbar sections of the spinal cord” value ([4]; ICV, 60 pmol Cre, FIG. 44B) was “obvious staining” and the location of editing ([4]; dissection segments, FIG. 44C) was “primarily at the injection site”.
For `COc1nn(C2CCNCC2)cc1Nc1ncc(Cl)c(-n2ccc3c(C#N)cccc32)n1` [Compound 2], the “increase in SSO activity” value ([1]; 2 μM Luc 705 SSO, FIG. 26) was “induced an increase in SSO activity”, the “relocalisation of Gal9 from cytosolic to punctate” value ([2]; 10-point dose titration, 2 hours, FIG. 3) was “dose-dependent manner” and the “endosomal rupture, decrease of 488-SSO puncta” value ([2]; FIG. 16A) was “time and concentration-dependent manner”. The “quantitation of GAL9 (mCherry-GAL9 puncta)” value ([2]; FIG. 17A) was “time and concentration-dependent responses”, the “window in concentration between induction of endosomal rupture and cytotoxicity” value ([2]; HeLa, FIG. 5) was “narrow window” and the “quantitation of Gal9 recruitment over time” value ([2]; HeLa, FIG. 8) was “time-dependent endosomal rupture”. The “A488-positive structures (A488-SSO) after treatment” value ([2]; preloaded 1 μM A488-SSO, FIG. 15A) was “gradually disappeared over 2 hours”, the “relocalisation of Gal9 from cytosolic to punctate” value ([3]; 10-point dose titration, 2 hours, FIG. 4) was “dose-dependent manner” and the “Gal9 recruitment signal, puncta per relative nuclear signal” value ([3]; 60 min, Huh7) was “highest overall induced signal”. For the same compound, the “endosomal rupture, decrease of 488-SSO puncta” value ([3]; FIG. 16B) was “time and concentration-dependent manner”, the “quantitation of GAL9 (mCherry-GAL9 puncta)” value ([3]; FIG. 17B) was “time and concentration-dependent responses” and the “window in concentration between induction of endosomal rupture and cytotoxicity” value ([3]; Huh7, FIG. 5) was “narrow window”. The “quantitation of Gal9 recruitment over time” value ([3]; Huh7, FIG. 7) was “time-dependent endosomal rupture” and the “A488-positive structures (A488-SSO) after treatment” value ([3]; preloaded 1 μM A488-SSO, FIG. 15B) was “gradually disappeared over 2 hours”.
